Values after ≈ are worked out from the molar mass of the structure shown. Positions of bridges follow the written chain, without caps; N, C: chain ends. Non-standard residues stand in square brackets, D forms with d. Residues, ends and D or L forms follow the SMILES beside them. *: point of attachment. X1 = CC[C@H](C)CCCCC(=O)*; Dab = NCC[C@H](N)C(=O)O
What was measured:
Type in all cases: functional
Conditions in all cases: time 16-24 hrs
Staphylococcus aureus [1] = test: Antibacterial activity against methicillin-resistant Staphylococcus aureus USA300 LAC incubated for 16 to 24 hrs by broth microdilution assay
Enterococcus faecium [2] = test: Antibacterial activity against vancomycin-resistant Enterococcus faecium Efm-HS-0649 harboring VanA phenotype incubated for 16 to 24 hrs by broth microdilution assay
Enterococcus faecium [3] = test: Antibacterial activity against vancomycin-resistant Enterococcus faecium Efm-HS-08257 harboring VanM phenotype incubated for 16 to 24 hrs by broth microdilution assay
Enterococcus faecium [4] = test: Antibacterial activity against vancomycin-resistant Enterococcus faecium Efm-HS-vb01 harboring VanB phenotype incubated for 16 to 24 hrs by broth microdilution assay
Enterococcus faecium [5] = test: Antibacterial activity against vancomycin-resistant Enterococcus faecium Efm-HS-vb02 harboring VanB phenotype incubated for 16 to 24 hrs by broth microdilution assay
Escherichia coli = test: Antibacterial activity against Escherichia coli AB1157 incubated for 16 to 24 hrs by broth microdilution assay
Acinetobacter baumannii [6] = test: Antibacterial activity against carbapenem-resistant Acinetobacter baumannii CRAB-1 clinical isolate incubated for 16 to 24 hrs by broth microdilution assay
Acinetobacter baumannii [7] = test: Antibacterial activity against Acinetobacter baumannii ATCC19606 incubated for 16 to 24 hrs by broth microdilution assay
Pseudomonas aeruginosa = test: Antibacterial activity against Pseudomonas aeruginosa PAO1 incubated for 16 to 24 hrs by broth microdilution assay
Klebsiella pneumoniae = test: Antibacterial activity against Klebsiella pneumoniae KP-1 incubated for 16 to 24 hrs by broth microdilution assay
Staphylococcus aureus [8] = test: Antibacterial activity against vancomycin-intermediate Staphylococcus aureus Mu50 incubated for 16 to 24 hrs by broth microdilution assay

| SMILES | MIC (Staphylococcus aureus [1]) | MIC (Enterococcus faecium [2]) | MIC (Enterococcus faecium [3]) | MIC (Enterococcus faecium [4]) | MIC (Enterococcus faecium [5]) | MIC (Escherichia coli) | MIC (Acinetobacter baumannii [6]) | MIC (Acinetobacter baumannii [7]) | MIC (Pseudomonas aeruginosa) | MIC (Klebsiella pneumoniae) | MIC (Staphylococcus aureus [8]) |
| --- | --- | --- | --- | --- | --- | --- | --- | --- | --- | --- | --- |
| CC(=O)NC[C@H]1CN(c2ccc(N3CCOCC3)c(F)c2)C(=O)O1 [LINEZOLID] | 1 µg/mL (≈ 2.96 µM) | 1 µg/mL (≈ 2.96 µM) | 2 µg/mL (≈ 5.93 µM) | 2 µg/mL (≈ 5.93 µM) | 2 µg/mL (≈ 5.93 µM) | 128 µg/mL (≈ 379 µM) | 128 µg/mL (≈ 379 µM) | 128 µg/mL (≈ 379 µM) | 128 µg/mL (≈ 379 µM) | > 128 µg/mL | – |
| CN[C@H](CC(C)C)C(=O)N[C@H]1C(=O)N[C@@H](CC(N)=O)C(=O)N[C@H]2C(=O)N[C@H]3C(=O)N[C@H](C(=O)N[C@H](C(=O)NCCC[S+](C)C[C@H](O)COc4ccccc4)c4cc(O)cc(O)c4-c4cc3ccc4O)[C@H](O)c3ccc(c(Cl)c3)Oc3cc2cc(c3O[C@@H]2O[C@H](CO)[C@@H](O)[C@H](O)[C@H]2O[C@H]2C[C@](C)(N)[C@H](O)[C@H](C)O2)Oc2ccc(cc2Cl)[C@H]1O.O=C([O-])C(F)(F)F (stereo partly specified) | 0.25 µg/mL | 32 µg/mL | 16 µg/mL | 16 µg/mL | 4 µg/mL | 16 µg/mL | > 128 µg/mL | 64 µg/mL | 128 µg/mL | > 128 µg/mL | 1 µg/mL |
| CCCCCCCCCC(=O)N[C@@H](Cc1c[nH]c2ccccc12)C(=O)N[C@@H](CC(N)=O)C(=O)N[C@@H](CC(=O)O)C(=O)N[C@@H]1C(=O)NCC(=O)N[C@@H](CCCN)C(=O)N[C@@H](CC(=O)O)C(=O)N[C@H](C)C(=O)N[C@@H](CC(=O)O)C(=O)NCC(=O)N[C@H](CO)C(=O)N[C@@H]([C@@H](C)CC(=O)O)C(=O)N[C@@H](CC(=O)c2ccccc2N)C(=O)O[C@@H]1C | 1 µg/mL (≈ 0.617 µM) | 8 µg/mL (≈ 4.94 µM) | 8 µg/mL (≈ 4.94 µM) | 8 µg/mL (≈ 4.94 µM) | 4 µg/mL (≈ 2.47 µM) | – | – | – | – | – | 4 µg/mL (≈ 2.47 µM) |
| CN[C@H](CC(C)C)C(=O)N[C@H]1C(=O)N[C@@H](CC(N)=O)C(=O)N[C@H]2C(=O)N[C@H]3C(=O)N[C@H](C(=O)N[C@H](C(=O)NCCC[S+](C)CC(O)COc4ccc(OC)cc4)c4cc(O)cc(O)c4-c4cc3ccc4O)[C@H](O)c3ccc(c(Cl)c3)Oc3cc2cc(c3O[C@@H]2O[C@H](CO)[C@@H](O)[C@H](O)[C@H]2O[C@H]2C[C@](C)(N)[C@H](O)[C@H](C)O2)Oc2ccc(cc2Cl)[C@H]1O.O=C([O-])C(F)(F)F (stereo partly specified) | 0.25 µg/mL | 32 µg/mL | 16 µg/mL | 16 µg/mL | 4 µg/mL | 16 µg/mL | 64 µg/mL | 64 µg/mL | > 128 µg/mL | > 128 µg/mL | 2 µg/mL |
| C[C@@H](O)[C@H]1C(=O)N2C(C(=O)O)=C(S[C@@H]3CN[C@H](C(=O)N(C)C)C3)[C@H](C)[C@H]12 [MEROPENEM] | – | – | – | – | – | – | > 128 µg/mL | 2 µg/mL (≈ 5.22 µM) | – | – | – |
| CC(C)C[C@H](C(=O)N[C@H]1C(=O)N[C@@H](CC(N)=O)C(=O)N[C@H]2C(=O)N[C@H]3C(=O)N[C@H](C(=O)N[C@H](C(=O)O)c4cc(O)cc(O)c4-c4cc3ccc4O)[C@H](O)c3ccc(c(Cl)c3)Oc3cc2cc(c3O[C@@H]2O[C@H](CO)[C@@H](O)[C@H](O)[C@H]2O[C@H]2C[C@](C)(N)[C@H](O)[C@H](C)O2)Oc2ccc(cc2Cl)[C@H]1O)N(C)CCC[S+](C)C[C@H](O)COc1ccccc1.O=C([O-])C(F)(F)F (stereo partly specified) | 2 µg/mL | > 128 µg/mL | 128 µg/mL | 64 µg/mL | 32 µg/mL | > 128 µg/mL | > 128 µg/mL | > 128 µg/mL | > 128 µg/mL | > 128 µg/mL | 8 µg/mL |
| CN[C@H](CC(C)C)C(=O)N[C@H]1C(=O)N[C@@H](CC(N)=O)C(=O)N[C@H]2C(=O)N[C@H]3C(=O)N[C@H](C(=O)N[C@H](C(=O)NCCC[S+](C)CC(O)COc4ccc(-c5ccccc5)cc4)c4cc(O)cc(O)c4-c4cc3ccc4O)[C@H](O)c3ccc(c(Cl)c3)Oc3cc2cc(c3O[C@@H]2O[C@H](CO)[C@@H](O)[C@H](O)[C@H]2O[C@H]2C[C@](C)(N)[C@H](O)[C@H](C)O2)Oc2ccc(cc2Cl)[C@H]1O.O=C([O-])C(F)(F)F (stereo partly specified) | ≤ 0.063 µg/mL | 8 µg/mL | 4 µg/mL | 4 µg/mL | 1 µg/mL | 16 µg/mL | 128 µg/mL | 32 µg/mL | > 128 µg/mL | > 128 µg/mL | 0.5 µg/mL |
| CN[C@H](CC(C)C)C(=O)N[C@H]1C(=O)N[C@@H](CC(N)=O)C(=O)N[C@H]2C(=O)N[C@H]3C(=O)N[C@H](C(=O)N[C@H](C(=O)NCCC[S+](C)CC(O)COc4ccc(-c5ccc(Cl)cc5)cc4)c4cc(O)cc(O)c4-c4cc3ccc4O)[C@H](O)c3ccc(c(Cl)c3)Oc3cc2cc(c3O[C@@H]2O[C@H](CO)[C@@H](O)[C@H](O)[C@H]2O[C@H]2C[C@](C)(N)[C@H](O)[C@H](C)O2)Oc2ccc(cc2Cl)[C@H]1O.O=C([O-])C(F)(F)F (stereo partly specified) | ≤ 0.063 µg/mL | 2 µg/mL | 2 µg/mL | 4 µg/mL | 0.5 µg/mL | 16 µg/mL | 64 µg/mL | 16 µg/mL | > 128 µg/mL | > 128 µg/mL | 0.25 µg/mL |
| CN[C@H](CC(C)C)C(=O)N[C@H]1C(=O)N[C@@H](CC(N)=O)C(=O)N[C@H]2C(=O)N[C@H]3C(=O)N[C@H](C(=O)N[C@H](C(=O)O)c4cc(O)c(CNCCC[S+](C)CC(O)COc5ccc(-c6ccccc6)cc5)c(O)c4-c4cc3ccc4O)[C@H](O)c3ccc(c(Cl)c3)Oc3cc2cc(c3O[C@@H]2O[C@H](CO)[C@@H](O)[C@H](O)[C@H]2O[C@H]2C[C@](C)(N)[C@H](O)[C@H](C)O2)Oc2ccc(cc2Cl)[C@H]1O.O=C([O-])C(F)(F)F (stereo partly specified) | ≤ 0.063 µg/mL | 4 µg/mL | 4 µg/mL | ≤ 0.063 µg/mL | ≤ 0.063 µg/mL | 16 µg/mL | 32 µg/mL | 16 µg/mL | > 128 µg/mL | > 128 µg/mL | ≤ 0.063 µg/mL |
| CC(C)C[C@H](C(=O)N[C@H]1C(=O)N[C@@H](CC(N)=O)C(=O)N[C@H]2C(=O)N[C@H]3C(=O)N[C@H](C(=O)N[C@H](C(=O)O)c4cc(O)cc(O)c4-c4cc3ccc4O)[C@H](O)c3ccc(c(Cl)c3)Oc3cc2cc(c3O[C@@H]2O[C@H](CO)[C@@H](O)[C@H](O)[C@H]2O[C@H]2C[C@](C)(N)[C@H](O)[C@H](C)O2)Oc2ccc(cc2Cl)[C@H]1O)N(C)CCC[S+](C)CC(O)COc1ccccc1.O=C([O-])C(F)(F)F (stereo partly specified) | 2 µg/mL | > 128 µg/mL | 128 µg/mL | 64 µg/mL | 32 µg/mL | > 128 µg/mL | > 128 µg/mL | > 128 µg/mL | > 128 µg/mL | > 128 µg/mL | 8 µg/mL |
| CN[C@H](CC(C)C)C(=O)N[C@H]1C(=O)N[C@@H](CC(N)=O)C(=O)N[C@H]2C(=O)N[C@H]3C(=O)N[C@H](C(=O)N[C@H](C(=O)O)c4cc(O)c(CNCCC[S+](C)C[C@H](O)COc5ccccc5)c(O)c4-c4cc3ccc4O)[C@H](O)c3ccc(c(Cl)c3)Oc3cc2cc(c3O[C@@H]2O[C@H](CO)[C@@H](O)[C@H](O)[C@H]2O[C@H]2C[C@](C)(N)[C@H](O)[C@H](C)O2)Oc2ccc(cc2Cl)[C@H]1O.O=C([O-])C(F)(F)F (stereo partly specified) | 2 µg/mL | > 128 µg/mL | 128 µg/mL | 4 µg/mL | 8 µg/mL | 64 µg/mL | > 128 µg/mL | > 128 µg/mL | > 128 µg/mL | > 128 µg/mL | 16 µg/mL |
| CC(C)CCCCC(=O)N[C@@H](CCN)C(=O)N[C@H](C(=O)N[C@@H](CCN)C(=O)N[C@H]1CCNC(=O)[C@H]([C@@H](C)O)NC(=O)[C@H](CCN)NC(=O)[C@H](CCN)NC(=O)[C@H](CC(C)C)NC(=O)[C@@H](Cc2ccccc2)NC(=O)[C@H](CCN)NC1=O)[C@@H](C)O.CC[C@H](C)CCCCC(=O)N[C@@H](CCN)C(=O)N[C@H](C(=O)N[C@@H](CCN)C(=O)N[C@H]1CCNC(=O)[C@H]([C@@H](C)O)NC(=O)[C@H](CCN)NC(=O)[C@H](CCN)NC(=O)[C@H](CC(C)C)NC(=O)[C@@H](Cc2ccccc2)NC(=O)[C@H](CCN)NC1=O)[C@@H](C)O (X1-[Dab]T[Dab][Dab][Dab][dF]L[Dab][Dab]T; lactam 4-C) | – | – | – | – | – | 0.125 µg/mL | 0.125 µg/mL | 0.125 µg/mL | 0.5 µg/mL | ≤ 0.063 µg/mL | – |
